The values that follow are results of earlier work, collected in patent publication US8367112B2, “Nanoparticulate carverdilol formulations” (Alkermes Pharma Ireland Limited, priority 2006, dated 2013).

The conditions of series [1]: in vivo, po.

Read-outs that look alike come from different tables or passages of the source.

In the case of `COc1ccccc1OCCNC[C@H](O)COc1cccc2[nH]c3ccccc3c12` (single isomer, unassigned) [S(−)-enantiomer, S(−)-carvedilol], the “apparent mean terminal elimination half-life” value in series [1] was 7 to 11 h.

`COc1ccccc1OCCNC[C@@H](O)COc1cccc2[nH]c3ccccc3c12` [R(+)-carvedilol]: in series [1], the “apparent mean terminal elimination half-life” value is 5 to 9 h and the “plasma levels relative to S(−)-carvedilol” value is on record as 2-3 times higher.

`COc1ccccc1OCCNCC(O)COc1cccc2[nH]c3ccccc3c12` (racemic) [carvedilol, (±)-1-(Carbazol-4-yloxy)-3-[[2-(o-methoxyphenoxy)ethyl]amino]-2-propanol]: the solubility result (95% ethanol) is listed as “sparingly soluble”; the solubility result (dimethylsulfoxide) was “freely soluble”; the solubility entry (ethyl ether) is recorded as “slightly soluble”; the solubility result (gastric fluid (simulated, TS, pH 1.1)) is listed as “practically insoluble”; the solubility entry (intestinal fluid (simulated, TS without pancreatin, pH 7.5)) is “practically insoluble”; the solubility result (isopropanol) was “sparingly soluble”. Also, the solubility entry is, setting by setting: (methanol) “soluble”; (methylene chloride) “soluble”; (water) “practically insoluble”.
